Source: the METLIN SMRT retention time set (Domingo-Almenara et al. 2019)

Experiment: gradient 5% acetonitrile 3 min, to 50% in 2 min, to 85% in 15 min, held 3 min, 100 µL/min
Details: column: Zorbax Extend-C18 2.1 x 50 mm; eluents: water / acetonitrile, 0.1% formic acid
Method in brief: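 Standards, all pure, were combined into mixtures of ~100 molecules and run at 100 μL/min on a Zorbax Extend-C18 column (2.1 × 50 mm, 1.8 μm) with water and acetonitrile, each containing 0.1% formic acid. A coupled quadrupole time-of-flight mass spectrometer operated in positive and negative ionization mode. Retention time values come from computationally picked adduct peaks, each inspected manually.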

Work on O=C(CN1C(=O)NC(c2ccccc2Cl)C2=C1COC2=O)Nc1ccc(F)c(Cl)c1 (stereo not given) yielded an RP-LC retention time of 837 s.

Work on CCOc1ccc(NC(=O)CSc2nnc3c4cc(-c5ccc(C)c(C)c5)nn4ccn23)cc1 yielded an RP-LC retention time of 973 s.

With CCOC(=O)c1c(C)oc2nc(C)nc(NCCCN3CCN(c4ccc(F)cc4)CC3)c12 the RP-LC retention time was 738 s.

With Cc1ccccc1-c1nc(C2CCN(S(=O)(=O)c3ccccc3)CC2)no1 the RP-LC retention time was 1140 s.

With CC(NC(=O)c1cnn2c(-c3ccc4c(c3)OCO4)ccnc12)c1ccc(F)cc1 (stereo not given) the RP-LC retention time was 1000 s.

For Cc1cc(Br)ccc1NC(=O)Cn1cnc2nc3c(cc2c1=O)CCCC3, the RP-LC retention time was 777 s.

NC(=O)c1oc2ccccc2c1NC(=O)C1CCCCN1S(=O)(=O)c1cccs1 (stereo not given) showed an RP-LC retention time of 825 s.

Work on COCc1cc(=O)n(CC(=O)Nc2ccc(OC)cc2)c(N2CCOCC2)n1 yielded an RP-LC retention time of 755 s.

O=C(c1csc(N2CCN(c3ccc(F)cc3)CC2)n1)N1CCCC1 showed an RP-LC retention time of 963 s.

For CCN(CC)S(=O)(=O)c1ccc2c(c1)CC(C(=O)N1CCCCCC1)N2C(C)=O (stereo not given), the RP-LC retention time was 839 s.

Cc1cccc(-n2cc(C(=O)OCC(=O)OC(C)C)c3ccccc3c2=O)c1 gave an RP-LC retention time of 1130 s.

Work on Cc1ccc2c(Nc3ccc(F)c(Cl)c3)c(-c3nc(C)no3)cnc2n1 yielded an RP-LC retention time of 804 s.

O=C(NC1CCCCC1)c1nnc(-c2ccc(S(=O)(=O)N3CCCC3)cc2)o1 showed an RP-LC retention time of 952 s.

O=C(O)c1ccc(N2CCN(c3ccccn3)CC2)c(NS(=O)(=O)c2cc(F)ccc2F)c1 showed an RP-LC retention time of 640 s.

O=C(CCc1conc1-c1ccc(F)cc1)NC1CCCCCC1 gave an RP-LC retention time of 969 s.

With CCOC(=O)[C@@H](N)Cc1ccc(O)c(O)c1 the RP-LC retention time was 579 s.

With CN(Cc1cccnc1)C(=O)C12CCC=C1N(C1CCCC1)C(=O)CC2 (stereo not given) the RP-LC retention time was 577 s.

Molecule CCCN1CCN(C(=O)c2sc(-c3cn(C(C)C)c4ncccc34)nc2C)CC1 has an RP-LC retention time of 619 s.

Molecule COCCn1nc(C(=O)N(C)CCCc2c(C)nn(C)c2C)c2c1CCNC2 has an RP-LC retention time of 572 s.

In the case of CCc1nc2c(NC(=O)Nc3ccc4c(c3)CCC4)cccn2n1, the RP-LC retention time is reported as 957 s.

For CCCCC(=O)Nc1nc(-c2ccc3c(c2)NC(=O)C(C)O3)c(C)s1 (stereo not given), the RP-LC retention time was 871 s.

For Cc1ccc(NC(=O)Cn2nc(N(C)C)c3ccccc3c2=O)c(Br)c1, the RP-LC retention time was 1010 s.

With Cc1nn(C)cc1CN1C[C@@H]2C(=O)N(Cc3ccc4c(c3)OCO4)C(=O)[C@@H]2C1 the RP-LC retention time was 601 s.

With Cc1nc2ccn(Cc3ccco3)c(=O)c2cc1C(=O)NCCN1CCOCC1 the RP-LC retention time was 585 s.

CCN1C(=O)C(CC(=O)NCC2CCCCC2)Sc2ncccc21 (stereo not given) showed an RP-LC retention time of 808 s.

For Cc1ccc(NC(=O)Cn2c(C)nc3c(sc4nc(-c5ccccc5)ccc43)c2=O)c(Cl)c1, the RP-LC retention time was 1140 s.

With CCN(CC)C(=O)c1ccc2c(c1)N(CC(=O)N1CCN(c3ncccn3)CC1)C(=O)CO2 the RP-LC retention time was 666 s.

For CNC(=O)C1CCCN(c2nc3ncn(CC(=O)NCc4ccccc4Cl)c(=O)c3s2)C1 (stereo not given), the RP-LC retention time was 664 s.

In the case of CCc1cccc(C)c1Nc1c(-c2ccc(N3CCOCC3)cc2)nc2ncccn12, the RP-LC retention time is reported as 806 s.

For Cn1cnc(S(=O)(=O)N2CCCCC2c2nc(-c3cccnc3)n[nH]2)c1 (stereo not given), the RP-LC retention time was 594 s.

Molecule CC(C)c1ccc(OCC(=O)Nc2nnc(C3CC(=O)N(c4ccc(F)cc4)C3)o2)cc1 (stereo not given) has an RP-LC retention time of 904 s.

Work on O=C(c1cccc(Cl)c1)N1CCC(n2c(-c3ccco3)nc3cccnc32)C1 (stereo not given) yielded an RP-LC retention time of 776 s.

O=C1CCCc2c1cc(C(=O)N1CCOCC1)c(=O)n2-c1ccc(C(F)(F)F)cc1 gave an RP-LC retention time of 723 s.

Molecule Cc1ccsc1-c1nnc(CC(=O)N2CCN(C3CCCCC3)CC2)o1 has an RP-LC retention time of 616 s.

Cc1ccc(-n2c(=O)c3c(cc(C)n3C)n(CC(=O)Nc3ccc(C)c(F)c3)c2=O)cc1 showed an RP-LC retention time of 931 s.
